Source: PubChem BioAssay (NCI)
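These data come from cells grown in 96-well plates and exposed to compound for 48 hours at five concentrations. GI50 = concentration required for 50% inhibition of growth. TGI denotes the concentration required for complete inhibition of growth.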

Tests used:
Experiment in all cases: growth of human tumour cells (NCI), 48 h
MOLT-4 leukemia = system: MOLT-4 leukemia
PC-3 prostate = system: PC-3 prostate
UACC-257 melanoma = system: UACC-257 melanoma
SF-295 CNS = system: SF-295 CNS
SK-MEL-5 melanoma = system: SK-MEL-5 melanoma
M14 melanoma = system: M14 melanoma
SF-268 CNS = system: SF-268 CNS
K-562 leukemia = system: K-562 leukemia
SW-620 colon = system: SW-620 colon
A498 renal = system: A498 renal

Cc1nnc([S-])s1.[Au+].c1ccc([PH+](c2ccccc2)c2ccccc2)cc1
GI50 (MOLT-4 leukemia): 2.34 µM
TGI (MOLT-4 leukemia): 6.76 µM
GI50 (PC-3 prostate): 1.52 µM
TGI (PC-3 prostate): 2.92 µM
GI50 (UACC-257 melanoma): 1.52 µM
TGI (UACC-257 melanoma): 3.09 µM
GI50 (SF-295 CNS): 1.74 µM
TGI (SF-295 CNS): 3.21 µM
GI50 (SK-MEL-5 melanoma): 1.51 µM
TGI (SK-MEL-5 melanoma): 2.97 µM
GI50 (M14 melanoma): 1.62 µM
TGI (M14 melanoma): 3.56 µM

COc1ccc2c(c1O)[C@@]13C=C(O)C(=O)C=C1[C@@H](C2)N(C)CC3
TGI (MOLT-4 leukemia): > 100 µM
TGI (SF-268 CNS): > 100 µM
TGI (PC-3 prostate): > 100 µM
TGI (UACC-257 melanoma): > 100 µM
TGI (SF-295 CNS): > 100 µM
TGI (SK-MEL-5 melanoma): > 100 µM
TGI (K-562 leukemia): > 100 µM
TGI (M14 melanoma): > 100 µM

CC1(C)N=C(N)N=C(N)N1c1ccc(OCC(=O)Nc2cccc(S(=O)(=O)F)c2)c(Cl)c1
TGI (SW-620 colon): > 100 µM
TGI (MOLT-4 leukemia): > 100 µM
TGI (SF-268 CNS): > 41.3 µM
TGI (PC-3 prostate): > 76.6 µM
TGI (UACC-257 melanoma): > 14.2 µM
TGI (SF-295 CNS): > 73.5 µM
TGI (SK-MEL-5 melanoma): > 91.9 µM
TGI (K-562 leukemia): > 100 µM
TGI (M14 melanoma): > 100 µM

C/C(=N\NS(=O)(=O)c1ccc(C)cc1)c1ccc[n+]([O-])n1
TGI (SW-620 colon): > 100 µM
TGI (MOLT-4 leukemia): > 100 µM
TGI (A498 renal): > 100 µM
TGI (SF-268 CNS): > 100 µM
TGI (UACC-257 melanoma): > 100 µM
TGI (SF-295 CNS): > 100 µM
TGI (SK-MEL-5 melanoma): > 100 µM
TGI (K-562 leukemia): > 100 µM
TGI (M14 melanoma): > 100 µM

CCN(CC)CCOc1ccc(/C=C2\C[C@H]3[C@@H]4CC=C5C[C@@H](OC(C)=O)CC[C@]5(C)[C@H]4CC[C@]3(C)[C@H]2OC(C)=O)cc1OC
GI50 (SW-620 colon): 16.8 µM
TGI (SW-620 colon): > 50 µM
GI50 (MOLT-4 leukemia): 1.4 µM
TGI (MOLT-4 leukemia): 20.6 µM
GI50 (SF-268 CNS): 8.34 µM
TGI (SF-268 CNS): 19.8 µM
GI50 (PC-3 prostate): 7.68 µM
TGI (PC-3 prostate): 21.3 µM
GI50 (UACC-257 melanoma): 10.6 µM
TGI (UACC-257 melanoma): 20 µM
GI50 (SF-295 CNS): 12.2 µM
TGI (SF-295 CNS): 24.3 µM
GI50 (SK-MEL-5 melanoma): 5.39 µM
TGI (SK-MEL-5 melanoma): 17 µM
GI50 (K-562 leukemia): 8.17 µM
TGI (K-562 leukemia): 28.4 µM
GI50 (M14 melanoma): 7.62 µM
TGI (M14 melanoma): 17.2 µM

CC1=C(C#N)C(N)=C2C(C)=C(C#N)C(N)=C12
TGI (SW-620 colon): > 100 µM
TGI (MOLT-4 leukemia): > 100 µM
TGI (A498 renal): > 100 µM
TGI (SF-268 CNS): > 100 µM
TGI (UACC-257 melanoma): > 100 µM
TGI (SF-295 CNS): > 100 µM
TGI (SK-MEL-5 melanoma): > 100 µM
TGI (K-562 leukemia): > 100 µM
TGI (M14 melanoma): > 100 µM

Cc1nnc2n1N=C(CC(=O)c1ccc(O)cc1O)CN2N
TGI (SW-620 colon): 31 µM
TGI (A498 renal): > 100 µM
TGI (SF-268 CNS): > 100 µM
TGI (UACC-257 melanoma): > 100 µM
TGI (SF-295 CNS): > 100 µM
TGI (SK-MEL-5 melanoma): > 100 µM
TGI (K-562 leukemia): > 100 µM
TGI (M14 melanoma): > 100 µM

Cc1cc(N(CCC#N)S(=O)(=O)c2ccccc2)ccc1C=O
TGI (SW-620 colon): > 100 µM
TGI (MOLT-4 leukemia): > 100 µM
TGI (A498 renal): > 100 µM
TGI (SF-268 CNS): > 100 µM
TGI (UACC-257 melanoma): > 100 µM
TGI (SF-295 CNS): > 100 µM
TGI (SK-MEL-5 melanoma): > 100 µM
TGI (K-562 leukemia): > 100 µM
TGI (M14 melanoma): > 100 µM

O=C1[C@H]2C(c3ccccc3)=NN(C(=O)c3ccccc3)[C@H]2C(=O)N1c1ccccc1
TGI (SW-620 colon): > 100 µM
TGI (MOLT-4 leukemia): > 100 µM
TGI (UACC-257 melanoma): > 100 µM
TGI (SF-295 CNS): > 100 µM
TGI (K-562 leukemia): > 100 µM
TGI (M14 melanoma): > 100 µM

CCOC(=O)/C=C1\Nc2ccccc2C(c2ccccc2)=NC1OC(C)=O (stereo unspecified)
TGI (SW-620 colon): > 100 µM
TGI (MOLT-4 leukemia): > 100 µM
TGI (A498 renal): > 100 µM
TGI (SF-268 CNS): > 100 µM
TGI (UACC-257 melanoma): > 100 µM
TGI (SF-295 CNS): > 100 µM
TGI (SK-MEL-5 melanoma): > 100 µM
TGI (K-562 leukemia): > 100 µM
TGI (M14 melanoma): > 100 µM

COc1ccc([Se]c2ccc(OC)cc2OC)c(OC)c1
TGI (SW-620 colon): > 100 µM
TGI (MOLT-4 leukemia): > 100 µM
TGI (A498 renal): 70.3 µM
TGI (SF-268 CNS): > 100 µM
TGI (UACC-257 melanoma): > 100 µM
TGI (SF-295 CNS): 33.7 µM
TGI (SK-MEL-5 melanoma): 93.4 µM
TGI (K-562 leukemia): > 100 µM
TGI (M14 melanoma): > 100 µM
